Results from patent publication US10517889B2, “Modulators of SMAD7 expression” (Ionis Pharmaceuticals, Inc., priority 2017, dated 2019).
Strand notation (5' to 3'): a small letter for the sugar, then the base; units joined by * are phosphorothioate-linked, units joined directly phosphodiester-linked; [ ] holds rarer units or linkages, { } end groups; capitals alone tell only the bases. k = constrained ethyl (cEt); [5mC] = 5-methylcytosine; d = 2'-deoxy (DNA)

The substances below were run on human SMAD7 mRNA (assay: Antisense inhibition of human SMAD7 mRNA expression in Hep3B cells by 3-10-3 cEt gapmers, 10,000 nM, electroporation (Example 2)). Conditions: Hep3B cells, electroporation with 10,000 nM antisense oligonucleotide, approximately 24 hours, SMAD7 mRNA by RT-PCR (RTS5062), relative to untreated control cells.
Assay type: cell-based
Method in brief: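 Percent inhibition of SMAD7 mRNA, relative to untreated cells, after ~24 h exposure of electroporated Hep3B cells to 10,000 nM cEt gapmer; levels by qRT-PCR, corrected for total RNA.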
In the case of “830126 (antisense k[5mC]*kT*k[5mC]*d[5mC]*dG*dA*dG*dG*d[5mC]*dA*d[5mC]*d[5mC]*dA*k[5mC]*kA*kT) [compound 830126]”, the “% Inhibition” value is reported as 34%. “830127 (antisense k[5mC]*k[5mC]*kT*d[5mC]*d[5mC]*dG*dA*dG*dG*d[5mC]*dA*d[5mC]*d[5mC]*kA*k[5mC]*kA) [compound 830127]” was tested, and the “% Inhibition” value was 62%. In the case of “830129 (antisense k[5mC]*kA*k[5mC]*d[5mC]*dT*d[5mC]*d[5mC]*dG*dA*dG*dG*d[5mC]*dA*k[5mC]*k[5mC]*kA) [compound 830129]”, the “% Inhibition” value is reported as 41%. For “830130 (antisense k[5mC]*k[5mC]*kA*d[5mC]*d[5mC]*dT*d[5mC]*d[5mC]*dG*dA*dG*dG*d[5mC]*kA*k[5mC]*k[5mC]) [compound 830130]”, the “% Inhibition” value was 32%. “830132 (antisense kT*kA*k[5mC]*d[5mC]*d[5mC]*dG*d[5mC]*d[5mC]*d[5mC]*dA*d[5mC]*dT*d[5mC]*k[5mC]*k[5mC]*k[5mC]) [compound 830132]” was tested, and the “% Inhibition” value was 8%. For “830133 (antisense kA*k[5mC]*kA*dA*dT*d[5mC]*dT*d[5mC]*d[5mC]*dT*dG*dG*dA*kA*kG*k[5mC]) [compound 830133]”, the “% Inhibition” value was 26%. With “830134 (antisense kA*kG*kT*dA*d[5mC]*dA*dA*dT*d[5mC]*dT*d[5mC]*d[5mC]*dT*kG*kG*kA) [compound 830134]” the “% Inhibition” value was 61%. “830136 (antisense kG*kA*kA*dA*dG*dT*dA*d[5mC]*dA*dA*dT*d[5mC]*dT*k[5mC]*k[5mC]*kT) [compound 830136]” was tested, and the “% Inhibition” value was 64%. For “830139 (antisense kT*kG*kG*dA*dG*dT*dT*dG*d[5mC]*dA*dT*dG*d[5mC]*k[5mC]*kT*kT) [compound 830139]”, the “% Inhibition” value was 45%. For “830140 (antisense kT*k[5mC]*k[5mC]*dT*dA*dA*dG*d[5mC]*dT*dA*d[5mC]*dT*dT*kG*kG*kT) [compound 830140]”, the “% Inhibition” value was 12%. “830141 (antisense kG*kG*k[5mC]*dA*dT*dT*dA*dG*dA*dG*dA*d[5mC]*d[5mC]*kT*k[5mC]*kA) [compound 830141]” was tested, and the “% Inhibition” value was 58%. “830143 (antisense kG*kG*kT*dG*dT*dG*d[5mC]*dA*d[5mC]*d[5mC]*dA*dG*dG*kT*kG*kA) [compound 830143]” was tested, and the “% Inhibition” value was 62%. “830145 (antisense kT*kG*kG*dG*dT*dG*dT*dG*d[5mC]*dA*d[5mC]*d[5mC]*dA*kG*kG*kT) [compound 830145]” was tested, and the “% Inhibition” value was 47%. For “830146 (antisense kT*kG*kG*dT*d[5mC]*dT*dT*d[5mC]*dA*d[5mC]*d[5mC]*dA*dG*kG*kG*kT) [compound 830146]”, the “% Inhibition” value was 62%. “830147 (antisense kG*kA*k[5mC]*dT*dG*dG*dT*d[5mC]*dT*dT*d[5mC]*dA*d[5mC]*k[5mC]*kA*kG) [compound 830147]” was tested, and the “% Inhibition” value was 0%. For “830148 (antisense kG*kG*kA*d[5mC]*dT*dG*dG*dT*d[5mC]*dT*dT*d[5mC]*dA*k[5mC]*k[5mC]*kA) [compound 830148]”, the “% Inhibition” value was 19%. “830149 (antisense kA*kG*kG*dA*d[5mC]*dT*dG*dG*dT*d[5mC]*dT*dT*d[5mC]*kA*k[5mC]*k[5mC]) [compound 830149]” was tested, and the “% Inhibition” value was 47%. For “830150 (antisense k[5mC]*kA*kG*dT*dG*dG*dT*dG*dA*d[5mC]*d[5mC]*dT*d[5mC]*k[5mC]*k[5mC]*kT) [compound 830150]”, the “% Inhibition” value was 51%. In the case of “830151 (antisense kG*k[5mC]*k[5mC]*dA*dG*dT*dG*dG*dT*dG*dA*d[5mC]*d[5mC]*kT*k[5mC]*k[5mC]) [compound 830151]”, the “% Inhibition” value is reported as 45%. “830152 (antisense k[5mC]*k[5mC]*k[5mC]*dG*dG*dA*dG*dA*dG*dG*dA*dA*dG*k[5mC]*k[5mC]*kT) [compound 830152]” was tested, and the “% Inhibition” value was 23%. With “830153 (antisense kG*k[5mC]*k[5mC]*dT*d[5mC]*dA*dG*d[5mC]*dA*dG*dT*dT*dA*kA*kT*kA) [compound 830153]” the “% Inhibition” value was 21%. With “830154 (antisense kG*kT*kG*d[5mC]*d[5mC]*dT*d[5mC]*dA*dG*d[5mC]*dA*dG*dT*kT*kA*kA) [compound 830154]” the “% Inhibition” value was 48%. In the case of “830155 (antisense kT*kG*kT*dG*d[5mC]*d[5mC]*dT*d[5mC]*dA*dG*d[5mC]*dA*dG*kT*kT*kA) [compound 830155]”, the “% Inhibition” value is reported as 38%. For “830156 (antisense k[5mC]*kT*kG*dT*dG*d[5mC]*d[5mC]*dT*d[5mC]*dA*dG*d[5mC]*dA*kG*kT*kT) [compound 830156]”, the “% Inhibition” value was 48%. In the case of “830158 (antisense kA*kA*kT*dT*dG*dA*dG*dA*dA*d[5mC]*dT*dG*dT*kG*k[5mC]*k[5mC]) [compound 830158]”, the “% Inhibition” value is reported as 43%. For “830159 (antisense k[5mC]*k[5mC]*kA*d[5mC]*dT*dA*dA*dA*dT*dT*dG*dA*dG*kA*kA*k[5mC]) [compound 830159]”, the “% Inhibition” value was 42%. “830160 (antisense kT*kG*kG*dT*dG*dT*dG*dT*dT*dA*dA*d[5mC]*d[5mC]*kA*k[5mC]*kT) [compound 830160]” was tested, and the “% Inhibition” value was 54%. In the case of “830161 (antisense kA*kG*kG*dT*dG*dA*dA*dA*dG*dT*dT*dA*dT*k[5mC]*kA*k[5mC]) [compound 830161]”, the “% Inhibition” value is reported as 13%. With “830162 (antisense kA*k[5mC]*kA*dA*dG*dG*dT*dG*dA*dA*dA*dG*dT*kT*kA*kT) [compound 830162]” the “% Inhibition” value was 20%. In the case of “830164 (antisense kG*k[5mC]*kT*dG*d[5mC]*dT*dT*dG*dG*d[5mC]*d[5mC]*dT*dT*kA*k[5mC]*k[5mC]) [compound 830164]”, the “% Inhibition” value is reported as 38%. “830165 (antisense kA*k[5mC]*kA*dG*d[5mC]*dT*dG*dT*dA*d[5mC]*d[5mC]*dA*dG*kG*kG*k[5mC]) [compound 830165]” was tested, and the “% Inhibition” value was 58%. In the case of “830166 (antisense k[5mC]*kA*k[5mC]*dA*dG*d[5mC]*dT*dG*dT*dA*d[5mC]*d[5mC]*dA*kG*kG*kG) [compound 830166]”, the “% Inhibition” value is reported as 48%. In the case of “830167 (antisense kT*kT*kT*dA*d[5mC]*dA*d[5mC]*dA*d[5mC]*d[5mC]*d[5mC]*d[5mC]*dA*kG*kG*kG) [compound 830167]”, the “% Inhibition” value is reported as 39%. For “830169 (antisense k[5mC]*kT*k[5mC]*dT*dG*dT*dT*dT*dG*dG*dA*d[5mC]*dA*kA*kG*kT) [compound 830169]”, the “% Inhibition” value was 58%. “830171 (antisense kT*kG*k[5mC]*dT*d[5mC]*dT*dG*dT*dT*dT*dG*dG*dA*k[5mC]*kA*kA) [compound 830171]” was tested, and the “% Inhibition” value was 26%. With “830172 (antisense k[5mC]*kT*kG*d[5mC]*dT*d[5mC]*dT*dG*dT*dT*dT*dG*dG*kA*k[5mC]*kA) [compound 830172]” the “% Inhibition” value was 27%. For “830173 (antisense kA*kG*kA*dG*dG*dT*dG*dT*dT*dT*d[5mC]*d[5mC]*dA*kA*kG*kG) [compound 830173]”, the “% Inhibition” value was 48%. With “830174 (antisense kG*kA*kG*dA*dG*dG*dT*dG*dT*dT*dT*d[5mC]*d[5mC]*kA*kA*kG) [compound 830174]” the “% Inhibition” value was 49%. For “830175 (antisense kT*k[5mC]*kT*d[5mC]*dA*dA*d[5mC]*dA*dG*dA*d[5mC]*d[5mC]*dA*k[5mC]*kA*k[5mC]) [compound 830175]”, the “% Inhibition” value was 44%. With “830176 (antisense kA*kT*kT*d[5mC]*dT*d[5mC]*dA*dA*d[5mC]*dA*dG*dA*d[5mC]*k[5mC]*kA*k[5mC]) [compound 830176]” the “% Inhibition” value was 61%.
